Experimental data as given in ChEMBL document CHEMBL1201862, “PubChem BioAssay data set” (2004).
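Method: 48-hour compound exposure of cells in 96-well plates, five concentrations, linear interpolation of endpoints. GI50: concentration for 50% inhibition of growth.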 Active and inactive are the calls of the source. Cut-off read from the data, not from the text of the source: active = GI50 up to about 1.1 µM and inactive = higher.

What was measured:
Test in all cases: DTP human tumour cell line panel, 48 h
HOP-92 = test system: HOP-92
NCI-H23 = test system: NCI-H23
COLO 205 = test system: COLO 205
MDA-MB-435 = test system: MDA-MB-435
SR = test system: SR
KM12 = test system: KM12
SK-MEL-2 = test system: SK-MEL-2
DU-145 = test system: DU-145
EKVX = test system: EKVX
IGROV-1 = test system: IGROV-1
SW-620 = test system: SW-620
CCRF-CEM = test system: CCRF-CEM
UACC-62 = test system: UACC-62
PC-3 = test system: PC-3
HOP-62 = test system: HOP-62
MOLT-4 = test system: MOLT-4
OVCAR-8 = test system: OVCAR-8
786-0 = test system: 786-0
SF-295 = test system: SF-295
SF-539 = test system: SF-539
NCI-H460 = test system: NCI-H460
ACHN = test system: ACHN
TK-10 = test system: TK-10
T47D = test system: T47D
HCT-116 = test system: HCT-116
SK-MEL-5 = test system: SK-MEL-5
K562 = test system: K562
UACC-257 = test system: UACC-257
OVCAR-3 = test system: OVCAR-3
MCF7 = test system: MCF7
OVCAR-5 = test system: OVCAR-5
CAKI-1 = test system: CAKI-1
SNB-75 = test system: SNB-75
U-251 = test system: U-251
SK-MEL-28 = test system: SK-MEL-28
SN12C = test system: SN12C
HT-29 = test system: HT-29
OVCAR-4 = test system: OVCAR-4
HCT-15 = test system: HCT-15
MDA-MB-231 = test system: MDA-MB-231
HL-60 = test system: HL-60
NCI-H522 = test system: NCI-H522
A549 = test system: A549
SK-OV-3 = test system: SK-OV-3
BT-549 = test system: BT-549
LOX IMVI = test system: LOX IMVI
RPMI-8226 = test system: RPMI-8226
SF-268 = test system: SF-268
RXF 393 = test system: RXF 393
HCC 2998 = test system: HCC 2998
SNB-19 = test system: SNB-19
M14 = test system: M14
MDA-N = test system: MDA-N
NCI-H226 = test system: NCI-H226
Hs-578T = test system: Hs-578T
NCI/ADR-RES = test system: NCI/ADR-RES
UO-31 = test system: UO-31
A498 = test system: A498
Malme-3M = test system: Malme-3M

Measured: GI50

Cc1nn(C(=O)c2ccc(Cl)cc2)c2c1C(c1ccco1)SC(=N)N2 (centres undefined)
inactive: HOP-92 > 10 µM | NCI-H23 > 10 µM | COLO 205 > 10 µM | MDA-MB-435 > 10 µM | SR > 10 µM | KM12 > 10 µM | SK-MEL-2 > 10 µM | DU-145 > 10 µM | EKVX > 10 µM | IGROV-1 > 10 µM | SW-620 > 10 µM | CCRF-CEM > 10 µM | UACC-62 > 10 µM | PC-3 > 10 µM | HOP-62 > 10 µM | MOLT-4 > 10 µM | OVCAR-8 > 10 µM | 786-0 > 10 µM | SF-295 > 10 µM | SF-539 > 10 µM | NCI-H460 > 10 µM | ACHN > 10 µM | TK-10 > 10 µM | T47D > 10 µM | HCT-116 > 10 µM | SK-MEL-5 > 10 µM | K562 > 10 µM | UACC-257 > 10 µM | OVCAR-3 > 10 µM | MCF7 > 10 µM | OVCAR-5 > 10 µM | CAKI-1 > 10 µM | SNB-75 > 10 µM | U-251 > 10 µM | SK-MEL-28 > 10 µM | SN12C > 10 µM | HT-29 > 10 µM | OVCAR-4 > 10 µM | MDA-MB-231 > 10 µM | HL-60 > 10 µM | NCI-H522 > 10 µM | A549 > 10 µM | SK-OV-3 > 10 µM | BT-549 > 10 µM | LOX IMVI > 10 µM | RPMI-8226 > 10 µM | SF-268 > 10 µM | RXF 393 > 10 µM | HCC 2998 > 10 µM | SNB-19 > 10 µM | M14 > 10 µM | MDA-N > 10 µM | NCI-H226 > 10 µM | Hs-578T > 10 µM | NCI/ADR-RES > 10 µM
> 10 µM: HCT-15

C[N+]1(C)CCOC(O)(c2ccccc2)C1 (centres undefined)
inactive: HOP-92 > 100 µM | NCI-H23 > 100 µM | COLO 205 > 100 µM | UO-31 > 100 µM | MDA-MB-435 > 100 µM | SR > 100 µM | KM12 > 100 µM | SK-MEL-2 > 100 µM | DU-145 > 100 µM | EKVX > 100 µM | IGROV-1 > 100 µM | A498 > 100 µM | SW-620 > 100 µM | CCRF-CEM > 100 µM | UACC-62 > 100 µM | PC-3 > 100 µM | HOP-62 > 100 µM | MOLT-4 > 100 µM | OVCAR-8 > 100 µM | 786-0 > 100 µM | SF-295 > 100 µM | SF-539 > 100 µM | NCI-H460 > 100 µM | ACHN > 100 µM | TK-10 > 100 µM | T47D > 100 µM | HCT-116 > 100 µM | SK-MEL-5 > 100 µM | K562 > 100 µM | UACC-257 > 100 µM | OVCAR-3 > 100 µM | MCF7 > 100 µM | OVCAR-5 > 100 µM | CAKI-1 > 100 µM | SNB-75 > 100 µM | U-251 > 100 µM | SK-MEL-28 > 100 µM | SN12C > 100 µM | HT-29 > 100 µM | OVCAR-4 > 100 µM | MDA-MB-231 > 100 µM | HL-60 > 100 µM | Malme-3M > 100 µM | NCI-H522 > 100 µM | A549 > 100 µM | SK-OV-3 > 100 µM | BT-549 > 100 µM | LOX IMVI > 100 µM | RPMI-8226 > 100 µM | SF-268 > 100 µM | RXF 393 > 100 µM | SNB-19 > 100 µM | M14 > 100 µM | MDA-N > 100 µM | NCI-H226 > 100 µM | Hs-578T > 100 µM | NCI/ADR-RES > 100 µM
> 100 µM: HCT-15
